In patent US10131652B2, “Pyrimidinyloxy benzene derivatives as herbicides” (E. I. DU PONT DE NEMOURS AND COMPANY, priority 2014, dated 2018):

How the values were obtained:
Assay type in all cases: in vivo
[1] = system: wheat (Triticum aestivum); assay: Test B pre-/postemergence plant response
Method in brief: (§1)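 Scoring used a 0–100 scale (100 = complete control) by visual comparison with untreated plants after approximately 10 days in the greenhouse. Compounds, in surfactant-containing non-phytotoxic solvent, were sprayed onto soil at planting or onto 2–10 cm seedlings.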

corn (Zea mays) [2] = assay: Test B pre-/postemergence plant response
Method in brief: as §1

[3] = system: pigweed (Amaranthus retroflexus); assay: Test B pre-/postemergence plant response
Method in brief: as §1

[4] = system: giant foxtail (Setaria faberii); assay: Test B pre-/postemergence plant response
Method in brief: as §1

[5] = system: barnyardgrass (Echinochloa crus-galli); assay: Test B pre-/postemergence plant response
Method in brief: as §1

[6] = system: galium (catchweed bedstraw, Galium aparine); assay: Test D pre-/postemergence plant response
Method in brief: (§2)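 Two application timings were run together: preemergence onto seeded loam–sand pots, and postemergence onto 1- to 4-leaf plants (2 to 18 cm) in peat/vermiculite medium with starter nutrients. Formulation was a non-phytotoxic solvent with surfactant. Ratings, 0 to 100, were made visually versus controls after 13 to 15 greenhouse days.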

corn (Zea mays) [7] = assay: Test D pre-/postemergence plant response
Method in brief: as §2

[8] = system: Italian ryegrass (Lolium multiflorum); assay: Test D pre-/postemergence plant response
Method in brief: as §2

[9] = system: lambsquarters (Chenopodium album); assay: Test D pre-/postemergence plant response
Method in brief: as §2

[10] = system: morningglory (Ipomoea coccinea); assay: Test D pre-/postemergence plant response
Method in brief: as §2

[11] = system: pigweed (Amaranthus retroflexus); assay: Test D pre-/postemergence plant response
Method in brief: as §2

[12] = system: giant foxtail (Setaria faberii); assay: Test D pre-/postemergence plant response
Method in brief: as §2

[13] = system: waterhemp (common waterhemp, Amaranthus rudis); assay: Test D pre-/postemergence plant response
Method in brief: as §2

[14] = system: blackgrass (Alopecurus myosuroides); assay: Test D pre-/postemergence plant response
Method in brief: as §2

[15] = system: ragweed (common ragweed, Ambrosia elatior); assay: Test D pre-/postemergence plant response
Method in brief: as §2

[16] = system: barnyardgrass (Echinochloa crus-galli); assay: Test D pre-/postemergence plant response
Method in brief: as §2

[17] = 125 g ai/ha, postemergence, 0 to 100 scale, 0 no effect, 100 complete control
[18] = Postemergence, 31 g ai/ha, 0 to 100 scale (0 no effect, 100 complete control)
[19] = 31 g ai/ha, Preemergence, 0 to 100 scale where 0 is no effect and 100 is complete control
[20] = Preemergence, 125 g ai/ha, 0 to 100 scale (0 no effect, 100 complete control)
[21] = Postemergence, 31 g ai/ha, scale 0 to 100 (0 no effect, 100 complete control)
[22] = Postemergence, 62 g ai/ha, scale 0 to 100, 0 no effect, 100 complete control
[23] = Postemergence, 125 g ai/ha, scale 0 to 100, 0 no effect, 100 complete control
[24] = 31 g ai/ha, Postemergence, 0 to 100 scale, 0 no effect, 100 complete control
[25] = Preemergence, 31 g ai/ha, 0 to 100 scale (0 no effect, 100 complete control)
[26] = Preemergence, 125 g ai/ha, 0 to 100 scale where 0 is no effect and 100 is complete control
[27] = Preemergence, 16 g ai/ha, scale 0 to 100 (0 no effect, 100 complete control)
[28] = Preemergence, 31 g ai/ha, scale 0 to 100 (0 no effect, 100 complete control)
[29] = Preemergence, 62 g ai/ha, scale 0 to 100 (0 no effect, 100 complete control)

Cc1cc(-c2c(F)cccc2Oc2ncc(Br)cn2)on1 [Compound 230]
Plant response rating, Wheat [1, 17]: 10
Plant response rating, Wheat [1, 18]: 0
Plant response rating, Corn (corn (Zea mays) [2]; [17]): 10
Plant response rating, Corn (corn (Zea mays) [2]; [18]): 0
Plant response rating, Pigweed [3, 19]: 90
Plant response rating, Pigweed [3, 17]: 90
Plant response rating, Pigweed [3, 18]: 60
Pigweed plant response rating [3, 20]: 100
Plant response rating, Foxtail, Giant [4, 19]: 60
Plant response rating, Foxtail, Giant [4, 17]: 70
Plant response rating, Foxtail, Giant [4, 18]: 0
Foxtail, Giant plant response rating [4, 20]: 90
Plant response rating, Barnyardgrass [5, 19]: 10
Plant response rating, Barnyardgrass [5, 17]: 60
Plant response rating, Barnyardgrass [5, 18]: 0
Barnyardgrass plant response rating [5, 20]: 70
Plant response rating (scale 0 to 100), Galium ([6]; Postemergence, 16 g ai/ha): 80
Galium plant response rating [6, 21]: 85
Galium plant response rating [6, 22]: 85
Plant response rating, Galium [6, 23]: 95
Plant response rating (scale 0 to 100), Corn (corn (Zea mays) [7]; Postemergence, 16 g ai/ha): 0
Corn plant response rating (corn (Zea mays) [7]; [21]): 0
Corn plant response rating (corn (Zea mays) [7]; [22]): 0
Plant response rating, Corn (corn (Zea mays) [7]; [23]): 15
Plant response rating (scale 0 to 100), Ryegrass, Italian ([8]; Postemergence, 16 g ai/ha): 0
Ryegrass, Italian plant response rating [8, 21]: 0
Ryegrass, Italian plant response rating [8, 22]: 5
Plant response rating, Ryegrass, Italian [8, 23]: 5
Plant response rating (scale 0 to 100), Lambsquarters ([9]; Postemergence, 16 g ai/ha): 55
Lambsquarters plant response rating [9, 21]: 70
Lambsquarters plant response rating [9, 22]: 80
Plant response rating, Lambsquarters [9, 23]: 70
Plant response rating (scale 0 to 100), Morningglory ([10]; Postemergence, 16 g ai/ha): 5
Morningglory plant response rating [10, 21]: 5
Morningglory plant response rating [10, 22]: 5
Plant response rating, Morningglory [10, 23]: 70
Plant response rating (scale 0 to 100), Pigweed ([11]; Postemergence, 16 g ai/ha): 60
Pigweed plant response rating [11, 21]: 65
Pigweed plant response rating [11, 22]: 70
Plant response rating, Pigweed [11, 23]: 85
Plant response rating (scale 0 to 100), Foxtail, Giant ([12]; Postemergence, 16 g ai/ha): 5
Foxtail, Giant plant response rating [12, 21]: 5
Foxtail, Giant plant response rating [12, 22]: 10
Plant response rating, Foxtail, Giant [12, 23]: 10
Plant response rating (scale 0 to 100), Waterhemp ([13]; Postemergence, 16 g ai/ha): 65
Waterhemp plant response rating [13, 21]: 70
Waterhemp plant response rating [13, 22]: 75
Plant response rating, Waterhemp [13, 23]: 80
Plant response rating (scale 0 to 100), Blackgrass ([14]; Postemergence, 16 g ai/ha): 0
Blackgrass plant response rating [14, 21]: 10
Blackgrass plant response rating [14, 22]: 10
Plant response rating, Blackgrass [14, 23]: 10
Plant response rating (scale 0 to 100), Ragweed ([15]; Postemergence, 16 g ai/ha): 30
Ragweed plant response rating [15, 21]: 40
Ragweed plant response rating [15, 22]: 55
Plant response rating, Ragweed [15, 23]: 55
Plant response rating (scale 0 to 100), Barnyardgrass ([16]; Postemergence, 16 g ai/ha): 5
Barnyardgrass plant response rating [16, 21]: 5
Barnyardgrass plant response rating [16, 22]: 10
Plant response rating, Barnyardgrass [16, 23]: 5

COc1cccc(Oc2ncc(Cl)cn2)c1-c1cc(C(F)(F)F)no1 [Compound 104]
Plant response rating, Wheat [1, 24]: 0
Plant response rating, Wheat [1, 17]: 10
Plant response rating, Corn (corn (Zea mays) [2]; [24]): 10
Plant response rating, Corn (corn (Zea mays) [2]; [17]): 30
Plant response rating, Pigweed [3, 24]: 90
Plant response rating, Pigweed [3, 17]: 90
Pigweed plant response rating [3, 25]: 80
Plant response rating, Pigweed [3, 26]: 100
Plant response rating, Foxtail, Giant [4, 24]: 20
Plant response rating, Foxtail, Giant [4, 17]: 80
Foxtail, Giant plant response rating [4, 25]: 40
Plant response rating, Foxtail, Giant [4, 26]: 100
Plant response rating, Barnyardgrass [5, 24]: 10
Plant response rating, Barnyardgrass [5, 17]: 60
Barnyardgrass plant response rating [5, 25]: 20
Plant response rating, Barnyardgrass [5, 26]: 80
Plant response rating (scale 0 to 100), Galium ([6]; Preemergence, 125 g ai/ha): 70
Plant response rating, Galium [6, 27]: 90
Plant response rating, Galium [6, 28]: 80
Plant response rating, Galium [6, 29]: 75
Plant response rating (scale 0 to 100), Corn (corn (Zea mays) [7]; Preemergence, 125 g ai/ha): 0
Plant response rating, Corn (corn (Zea mays) [7]; [27]): 0
Plant response rating, Corn (corn (Zea mays) [7]; [28]): 0
Plant response rating, Corn (corn (Zea mays) [7]; [29]): 0
Plant response rating (scale 0 to 100), Ryegrass, Italian ([8]; Preemergence, 125 g ai/ha): 5
Plant response rating, Ryegrass, Italian [8, 27]: 0
Plant response rating, Ryegrass, Italian [8, 28]: 0
Plant response rating, Ryegrass, Italian [8, 29]: 0
Plant response rating (scale 0 to 100), Lambsquarters ([9]; Preemergence, 125 g ai/ha): 90
Plant response rating, Lambsquarters [9, 27]: 65
Plant response rating, Lambsquarters [9, 28]: 80
Plant response rating, Lambsquarters [9, 29]: 90
Plant response rating (scale 0 to 100), Morningglory ([10]; Preemergence, 125 g ai/ha): 25
Plant response rating, Morningglory [10, 27]: 5
Plant response rating, Morningglory [10, 28]: 5
Plant response rating, Morningglory [10, 29]: 25
Plant response rating (scale 0 to 100), Pigweed ([11]; Preemergence, 125 g ai/ha): 100
Plant response rating, Pigweed [11, 27]: 100
Plant response rating, Pigweed [11, 28]: 100
Plant response rating, Pigweed [11, 29]: 100
Plant response rating (scale 0 to 100), Foxtail, Giant ([12]; Preemergence, 125 g ai/ha): 100
Plant response rating, Foxtail, Giant [12, 27]: 30
Plant response rating, Foxtail, Giant [12, 28]: 80
Plant response rating, Foxtail, Giant [12, 29]: 90
Plant response rating (scale 0 to 100), Waterhemp ([13]; Preemergence, 125 g ai/ha): 100
Plant response rating, Waterhemp [13, 27]: 100
Plant response rating, Waterhemp [13, 28]: 100
Plant response rating, Waterhemp [13, 29]: 100
Plant response rating (scale 0 to 100), Blackgrass ([14]; Preemergence, 125 g ai/ha): 30
Plant response rating, Blackgrass [14, 27]: 0
Plant response rating, Blackgrass [14, 28]: 0
Plant response rating, Blackgrass [14, 29]: 0
Plant response rating (scale 0 to 100), Ragweed ([15]; Preemergence, 125 g ai/ha): 60
Plant response rating, Ragweed [15, 27]: 40
Plant response rating, Ragweed [15, 28]: 25
Plant response rating, Ragweed [15, 29]: 55
Plant response rating (scale 0 to 100), Barnyardgrass ([16]; Preemergence, 62 g ai/ha): 25
Plant response rating (scale 0 to 100), Barnyardgrass ([16]; Preemergence, 125 g ai/ha): 70
Plant response rating, Barnyardgrass [16, 27]: 0
Plant response rating, Barnyardgrass [16, 28]: 10
